Measured values as given in patent US7659394B2 (Pfizer Inc, priority 2004, dated 2010).
pKi: −log10 of the molar value.

Assays:
[1] = biological target: T1, human seritonin transporter (Homo sapiens, UniProt P31645); assay: hSERT receptor binding ([125I]-RTI-55 radioligand binding); conditions: membranes of HEK-293 cells transfected with human seritonin transporter, IC50 converted to Ki by Cheng-Prusoff, read-out: SERT (Ki)
T1 construct: host or cells: HEK-293
Excerpt: (§1) The ability of the compounds of this invention to bind to the hNET and serotonin SERT receptor can be determined using conventional radiolig and receptor binding assays. The receptors can be heterologously expressed in cell lines and experiments conducted in membrane preparations from the cell lines using procedures outlined below. IC50 concentrations can be determined by nonlinear regression of concentration-dependent reduction in specific binding. The Cheng-Prussoff equation can be used to convert the IC50 to Ki concentrations.
Cell pastes of HEK-293 cells transfected with the human seritonin transporter were supplied by the Pfizer Ann Arbor Protein Expression and Production group. […] Aliquots of membranes (5 mg/ml protein) were stored in liquid nitrogen until used.
(§2) The reaction was incubated by gentle agitation for 90 min at room temperature and was terminated by filtration through Whatman GF/C filter plates using a Brandel 96-well plate harvester. […] Test compounds were run in duplicate, and specific binding was defined as the difference between binding in the presence and absence of 10 μl M citalopram.
(§3) Excel and GraphPad Prism software were used for data calculation and analysis. IC50 values were converted to Ki values using the Cheng-Prusoff equation.

[2] = biological target: T2, human norepinephrine transporter (Homo sapiens, UniProt P23975); assay: hNET receptor binding ([125I]-RTI-55 radioligand binding); conditions: membranes of HEK-293 cells transfected with human norepinephrine transporter, IC50 converted to Ki by Cheng-Prusoff, read-out: hNET (Ki)
T2 construct: host or cells: HEK-293
Excerpt: as §1
Cell pastes of HEK-293 cells transfected with the human norepinephrine transporter were supplied by the Pfizer Ann Arbor Protein Expression and Production group. […] Aliquots of membranes (5 mg/ml protein) were stored in liquid nitrogen until used.
as §2, with “μM desipramine.” for “μl M citalopram.”
as §3

T1 sequence (P31645 whole entry): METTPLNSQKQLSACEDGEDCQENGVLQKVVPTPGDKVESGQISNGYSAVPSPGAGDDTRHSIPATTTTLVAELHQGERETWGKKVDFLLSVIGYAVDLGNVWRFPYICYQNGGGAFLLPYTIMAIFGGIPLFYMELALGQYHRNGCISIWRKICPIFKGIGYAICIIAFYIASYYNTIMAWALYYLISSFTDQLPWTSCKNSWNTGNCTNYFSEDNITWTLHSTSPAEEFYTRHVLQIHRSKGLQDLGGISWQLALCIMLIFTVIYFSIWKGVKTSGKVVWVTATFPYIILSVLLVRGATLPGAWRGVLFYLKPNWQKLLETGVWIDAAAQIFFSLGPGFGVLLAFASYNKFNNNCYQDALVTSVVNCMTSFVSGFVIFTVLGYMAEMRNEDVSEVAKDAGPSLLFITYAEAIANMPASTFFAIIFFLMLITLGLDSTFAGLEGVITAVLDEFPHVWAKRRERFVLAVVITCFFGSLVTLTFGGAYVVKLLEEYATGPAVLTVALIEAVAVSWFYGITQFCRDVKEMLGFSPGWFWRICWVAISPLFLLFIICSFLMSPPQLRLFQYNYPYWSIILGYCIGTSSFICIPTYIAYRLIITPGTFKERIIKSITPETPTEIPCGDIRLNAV
T2 sequence (P23975 whole entry): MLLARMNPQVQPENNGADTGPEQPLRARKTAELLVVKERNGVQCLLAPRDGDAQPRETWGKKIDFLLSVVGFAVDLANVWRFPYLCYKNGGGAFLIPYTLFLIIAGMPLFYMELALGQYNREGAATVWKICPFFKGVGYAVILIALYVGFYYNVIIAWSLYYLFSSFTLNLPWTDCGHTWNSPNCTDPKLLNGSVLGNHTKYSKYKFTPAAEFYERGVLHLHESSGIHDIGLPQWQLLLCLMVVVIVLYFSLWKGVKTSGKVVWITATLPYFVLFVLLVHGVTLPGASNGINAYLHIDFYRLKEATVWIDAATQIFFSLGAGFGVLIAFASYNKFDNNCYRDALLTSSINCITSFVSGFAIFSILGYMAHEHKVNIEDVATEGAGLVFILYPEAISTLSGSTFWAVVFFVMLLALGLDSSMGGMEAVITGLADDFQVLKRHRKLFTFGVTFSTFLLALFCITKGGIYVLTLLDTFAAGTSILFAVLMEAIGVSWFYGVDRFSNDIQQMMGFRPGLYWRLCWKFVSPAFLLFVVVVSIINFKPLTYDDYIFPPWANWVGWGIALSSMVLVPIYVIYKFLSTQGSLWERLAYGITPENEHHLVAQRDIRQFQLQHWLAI

SMILES | pKi [1] | pKi [2]
CCOCc1ccccc1O[C@@H](c1ccccc1)[C@@H]1CNCCO1 [Example 63, (S)-2-[(S)-(2-Ethoxymethyl-phenoxy)-phenyl-methyl]-morpholine] | 5.60 | 7.55
Fc1ccc(Oc2ncccc2O[C@@H](c2ccccc2)[C@@H]2CNCCO2)cc1 [Example 65, (S)-2-{(S)-[2-(4-Fluoro-phenoxy)-pyridin-3-yloxy]-phenyl-methyl}-morpholine] | 5.92 | 7.07
Fc1ccc(O[C@@H](c2ccccc2)[C@@H]2CNCCO2)cc1 [Example 69, (S)-2-[(S)-(4-Fluoro-phenoxy)-phenyl-methyl]-morpholine] | 5.72 | 7.59
COc1ccccc1-c1ccccc1OCC1CNCCO1 (stereo not drawn) [Example 74, 2-(2′-Methoxy-biphenyl-2-yloxymethyl)-morpholine] | ≤ 5.00 | 7.26
Fc1ccc(-c2cc(F)ccc2OCC2CNCCO2)cc1 [Example 76, (R)- and (S)-2-(5,4′-Difluoro-biphenyl-2-yloxymethyl)-morpholine] | 6.46 | 7.19
c1ccc(Oc2ncccc2OC[C@H]2CNCCO2)cc1 [Example 77, (R)-2-(2-Phenoxy-pyridin-3-yloxymethyl)-morpholine] | ≤ 5.00 | 5.50
Fc1ccc(Oc2ncccc2OC[C@@H]2CNCCO2)cc1F [Example 79, (S)-2-[2-(3,4-Difluoro-phenoxy)-pyridin-3-yloxymethyl]-morpholine] | 5.02 | 8.00
Fc1ccc(-c2ccccc2O[C@@H](c2ccccc2)[C@@H]2CNCCO2)cc1 [Example 81, (S)-2-[(S)-(4′-Fluoro-biphenyl-2-yloxy)-phenyl-methyl]-morpholine] | 5.36 | 8.02
c1ccc(COc2ccccc2O[C@@H](c2ccccc2)[C@@H]2CNCCO2)cc1 [Example 83, (S)-2-[(S)-(2-Benzyloxy-phenoxy)-phenyl-methyl]-morpholine] | 5.51 | 8.41
Fc1ccccc1O[C@@H](c1ccccc1)[C@@H]1CNCCO1 [Example 84, (S)-2-[(S)-(2-Fluoro-phenoxy)-phenyl-methyl]-morpholine] | 5.31 | 8.14
OCc1ccccc1O[C@@H](c1ccccc1)[C@@H]1CNCCO1 [Example 85, (2S,3S)-[2-(Morpholin-2-yl-phenyl-methoxy)-phenyl]-methanol] | 6.06 | 7.43
Fc1ccccc1-c1ccccc1O[C@@H](c1ccccc1)[C@@H]1CNCCO1 [Example 86, (S)-2-[(S)-(2′-Fluoro-biphenyl-2-yloxy)-phenyl-methyl]-morpholine] | 5.09 | 7.85
Fc1ccc(OC(c2ccccn2)[C@H]2CNCCO2)c(F)c1 (stereo partly drawn) [Example 87, (2R,3R)-2-[(2,4-Difluoro-phenoxy)-pyridin-2-yl-methyl]-morpholine] | 6.02 | 5.54
Fc1ccc(Oc2ncccc2OC[C@H]2CNCCO2)cc1 [Example 89, (2R)-2-[2-(4-Fluoro-phenoxy)-pyridin-3-yloxymethyl]-morpholine] | ≤ 5.00 | 5.39
CCOc1ccccc1O[C@H](c1cccnc1)[C@H]1CNCCO1 [Example 90, (2R)-2-[(R)-(2-Ethoxy-phenoxy)-pyridin-3-yl-methyl]-morpholine] | 5.30 | 6.68
N#Cc1ccccc1O[C@@H](c1ccccc1)[C@@H]1CNCCO1 [Example 93, 2-[(S)-(2S)-morpholin-2-yl(phenyl)methoxy]benzonitrile] | 5.25 | 7.96
Fc1ccc(Cl)c(OC(c2ccccc2)[C@@H]2CNCCO2)c1 (stereo partly drawn) [Example 94, (2S)-2-[(2-chloro-5-fluorophenoxy)(phenyl)methyl]morpholine] | 6.09 | 8.10
COc1cccc(F)c1OC(c1ccccc1)[C@@H]1CNCCO1 (stereo partly drawn) [Example 95, (2S)-2-[(2-fluoro-6-methoxyphenoxy)(phenyl)methyl]morpholine] | 5.47 | 8.52
CCCc1ccccc1O[C@@H](c1ccccc1)[C@@H]1CNCCO1 [Example 97, (2S)-2-[(S)-phenyl(2-propylphenoxy)methyl]morpholine] | 6.33 | 8.05
CC(C)c1ccccc1O[C@@H](c1ccccn1)[C@@H]1CNCCO1 [Example 103, (2S)-2-[(S)-(2-isopropylphenoxy)(pyridin-2-yl)methyl]morpholine] | 5.22 | 7.89
CCOc1ccccc1O[C@@H](c1cccc(C)n1)[C@@H]1CNCCO1 [Example 107, (2S)-2-[(S)-(2-ethoxyphenoxy)(6-methylpyridin-2-yl)methyl]morpholine] | 5.43 | 7.57
CCOc1ccccc1O[C@@H](c1cccc(OC)n1)[C@@H]1CNCCO1 [Example 108, (2S)-2-[(S)-(2-ethoxyphenoxy)(6-methoxypyridin-2-yl)methyl]morpholine] | 6.17 | 7.55
COc1cccc([C@H](Oc2ccccc2OC(F)(F)F)[C@@H]2CNCCO2)n1 [Example 109, (2S)-2-{(S)-(6-methoxypyridin-2-yl)[2-(trifluoromethoxy)phenoxy]methyl}morpholine] | 6.44 | 7.80
Fc1ccc(C(Oc2c(F)cccc2F)[C@H]2CNCCO2)cc1 (stereo partly drawn) [Example 111, (2R)-2-[(2,6-difluorophenoxy)(4-fluorophenyl)methyl]morpholine] | 6.63 | 6.98
Brc1ccccc1OC(c1ccccc1)[C@H]1CNCCO1 (stereo partly drawn) [Example 112, (2R)-2-[(2-bromophenoxy)(phenyl)methyl]morpholine] | 6.98 | 7.77
c1ccc(C(Oc2ccccc2C2CC2)[C@H]2CNCCO2)cc1 (stereo partly drawn) [Example 114, (2R)-2-[(2-cyclopropylphenoxy)(phenyl)methyl]morpholine] | 7.12 | 7.46

Second part, the compound after the results:

pKi [1] | pKi [2] | SMILES
≤ 5.00 | 6.92 | CN(C)c1ccccc1O[C@@H](c1ccccc1)[C@@H]1CNCCO1 [Example 64, (2S,3S)-Dimethyl-[2-(morpholin-2-yl-phenyl-methoxy)-phenyl]-amine]
6.75 | 7.09 | Fc1ccc([C@H](Oc2c(F)cccc2F)[C@H]2CNCCO2)cc1 [Example 66, (R)-2-[(S)-(2,6-Difluoro-phenoxy)-(4-fluoro-phenyl)-methyl]-morpholine]
7.03 | 7.68 | Brc1ccccc1O[C@@H](c1ccccc1)[C@H]1CNCCO1 [Example 67, (R)-2-[(S)-(2-Bromo-phenoxy)-phenyl-methyl]-morpholine]
6.18 | 7.72 | Fc1ccc(O[C@@H](c2ccccc2)[C@@H]2CNCCO2)c(F)c1 [Example 68, (S)-2-[(S)-(2,4-Difluoro-phenoxy)-phenyl-methyl]-morpholine]
7.19 | 7.30 | c1ccc([C@H](Oc2ccccc2C2CC2)[C@H]2CNCCO2)cc1 [Example 71, (R)-2-[(S)-(2-Cyclopropyl-phenoxy)-phenyl-methyl]-morpholine]
≤ 5.00 | 6.23 | Clc1ccccc1-c1ccccc1OCC1CNCCO1 (stereo not drawn) [Example 73, 2-(2′-Chloro-biphenyl-2-yloxymethyl)-morpholine]
5.44 | 8.12 | c1ccc(O[C@@H](c2ccccc2)[C@@H]2CNCCO2)cc1 [Example 80, (S)-2-((S)-Phenoxy-phenyl-methyl)-morpholine]
5.58 | 7.96 | Cc1ccc(-c2ccccc2O[C@@H](c2ccccc2)[C@@H]2CNCCO2)cc1 [Example 82, (S)-2-[(S)-(4′-Methyl-biphenyl-2-yloxy)-phenyl-methyl]-morpholine]
5.35 | 7.92 | Fc1ccc(F)c(O[C@@H](c2ccccc2)[C@@H]2CNCCO2)c1 [Example 96, (2S)-2-[(S)-(2,5-difluorophenoxy)(phenyl)methyl]morpholine]
5.94 | 7.66 | CCc1ccccc1O[C@@H](c1ccccc1)[C@@H]1CNCCO1 [Example 98, (2S)-2-[(S)-(2-ethylphenoxy)(phenyl)methyl]morpholine]
5.24 | 7.09 | c1ccc(COc2ccccc2O[C@@H](c2ccccn2)[C@@H]2CNCCO2)cc1 [Example 102, (2S)-2-[(S)-[2-(benzyloxy)phenoxy](pyridin-2-yl)methyl]morpholine]
6.45 | 8.07 | c1ccc([C@H](Oc2cccc3c2CCC3)[C@@H]2CNCCO2)nc1 [Example 110, (2S)-2-[(S)-(2,3-dihydro-1H-inden-4-yloxy)(pyridin-2-yl)methyl]morpholine]
7.15 | 7.82 | Fc1cccc(Cl)c1O[C@@H](c1ccccc1)[C@@H]1CNCCO1 [Example 113, (2S)-2-[(S)-(2-chloro-6-fluorophenoxy)(phenyl)methyl]morpholine]
